Broadly, the pEC50 is the negative decadic logarithm of the EC50, by convention in mol/L. As usually defined, the Emax is the maximal effect, on the per cent scale that the assay sets.

15 compounds from patent US20240208992A1, “MACROCYCLES AS CFTR MODULATORS” (Idorsia Pharmaceuticals Ltd, priority 2021, published 2024) can be followed below.

The test deals with human F508del-CFTR (Homo sapiens, UniProt P13569, DEL508-508). In words: F508del-CFTR cell surface expression (corrector activity), DiscoveRx ß-galactosidase complementation chemiluminescence assay in recombinant U2OS cell line.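 For all read-outs here: U2OS cells co-expressing ProLink-tagged F508del-CFTR and a membrane-anchored enzyme acceptor, where more surface CFTR restores β-galactosidase activity measured by chemiluminescence.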 The note with it: for pEC50: EC50, F508del-CFTR cell surface expression, 16h compound incubation, geomean values; for Emax: U2OS, in relation to Emax of corrector lumacaftor (=100%), arithmetic mean values.

pEC50: −log10 of the molar value.

Chain of human F508del-CFTR (P13569 with tags, fused parts or gaps DEL508-508): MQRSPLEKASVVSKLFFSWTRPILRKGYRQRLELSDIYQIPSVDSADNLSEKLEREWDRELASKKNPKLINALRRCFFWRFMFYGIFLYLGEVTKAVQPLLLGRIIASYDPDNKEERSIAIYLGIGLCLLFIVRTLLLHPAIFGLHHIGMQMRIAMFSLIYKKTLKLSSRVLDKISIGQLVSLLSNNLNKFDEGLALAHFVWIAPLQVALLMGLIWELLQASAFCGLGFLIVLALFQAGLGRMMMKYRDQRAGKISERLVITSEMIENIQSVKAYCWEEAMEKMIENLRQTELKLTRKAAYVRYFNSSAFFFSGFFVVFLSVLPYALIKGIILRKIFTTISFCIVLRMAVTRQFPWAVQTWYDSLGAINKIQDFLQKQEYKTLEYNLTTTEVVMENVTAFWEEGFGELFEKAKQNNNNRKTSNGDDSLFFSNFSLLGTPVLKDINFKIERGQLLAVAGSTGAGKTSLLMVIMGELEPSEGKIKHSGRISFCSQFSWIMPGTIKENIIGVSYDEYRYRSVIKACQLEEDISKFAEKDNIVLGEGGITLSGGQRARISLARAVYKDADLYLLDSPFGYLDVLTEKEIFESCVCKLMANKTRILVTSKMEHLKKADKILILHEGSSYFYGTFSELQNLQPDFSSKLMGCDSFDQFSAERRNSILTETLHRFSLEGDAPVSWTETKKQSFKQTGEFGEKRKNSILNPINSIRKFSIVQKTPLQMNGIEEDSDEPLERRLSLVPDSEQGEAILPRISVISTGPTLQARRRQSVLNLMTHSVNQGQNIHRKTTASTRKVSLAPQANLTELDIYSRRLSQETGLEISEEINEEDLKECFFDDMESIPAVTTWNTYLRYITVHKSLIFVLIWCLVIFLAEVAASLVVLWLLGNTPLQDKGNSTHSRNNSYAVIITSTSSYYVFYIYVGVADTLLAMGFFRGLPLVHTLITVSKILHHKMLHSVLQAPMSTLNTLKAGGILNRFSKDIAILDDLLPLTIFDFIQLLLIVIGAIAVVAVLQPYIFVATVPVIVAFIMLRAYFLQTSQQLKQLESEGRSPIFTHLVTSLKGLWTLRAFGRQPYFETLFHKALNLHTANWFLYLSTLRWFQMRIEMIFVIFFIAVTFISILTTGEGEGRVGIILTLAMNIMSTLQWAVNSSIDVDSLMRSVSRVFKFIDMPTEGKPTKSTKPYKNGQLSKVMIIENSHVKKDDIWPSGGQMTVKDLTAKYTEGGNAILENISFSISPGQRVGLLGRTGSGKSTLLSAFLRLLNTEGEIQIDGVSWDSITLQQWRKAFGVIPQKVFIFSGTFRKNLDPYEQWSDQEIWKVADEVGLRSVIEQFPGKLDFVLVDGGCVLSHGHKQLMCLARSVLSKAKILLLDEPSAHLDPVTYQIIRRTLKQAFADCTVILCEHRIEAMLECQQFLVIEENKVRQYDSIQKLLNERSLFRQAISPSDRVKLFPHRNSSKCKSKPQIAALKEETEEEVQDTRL

On to `CN1C(=O)C[C@@H](C(=O)NCCc2ccc3c(c2)OCO3)NC(=O)c2c(ccc3ccccc23)OC[C@@H](Cc2ccccc2)NC(=O)CN(CCC2CCCCC2)C(=O)[C@@H]1CC1CCCC1` (mixture of isomers) [Example 290, (3RS,7S,13R)-N-(2-(benzo[d][1,3]dioxol-5-yl)ethyl)-13-benzyl-9-(2-cyclohexylethyl)-7-(cyclopentylmethyl)-6-methyl-1,5,8,11-tetraoxo-1,2,3,4,5,6,7,8,9,10,11,12,13,14-tetradecahydronaphtho[1,2-p][1]oxa[4,7,10,14]tetraazacycloheptadecine-3-carboxamide], for which the pEC50 (U2OS cell line) is 6.73.

In the case of `CN1C(=O)C[C@@H](C(=O)NCCc2ccc3c(c2)OCO3)NC(=O)c2c(ccc3ccccc23)OC[C@@H](Cc2ccccc2)NC(=O)CN(CCC2CCCCC2)C(=O)[C@@H]1CC1CCC1` (mixture of isomers) [Example 292, (3RS,7S,13R)-N-(2-(benzo[d][1,3]dioxol-5-yl)ethyl)-13-benzyl-7-(cyclobutylmethyl)-9-(2-cyclohexylethyl)-6-methyl-1,5,8,11-tetraoxo-1,2,3,4,5,6,7,8,9,10,11,12,13,14-tetradecahydronaphtho[1,2-p][1]oxa[4,7,10,14]tetraazacycloheptadecine-3-carboxamide], for the setting “U2OS cell line”, the pEC50 was 6.94.

In the case of `COc1cccc(CCNC(=O)[C@@H]2CC(=O)N(C)[C@@H](CC3CCCC3)C(=O)N(C[C@@H]3CCCCO3)CC(=O)N[C@H](Cc3ccccc3)COc3ccc4ccccc4c3C(=O)N2)c1` (mixture of isomers) [Example 293, (3RS,7S,13R)-13-benzyl-7-(cyclopentylmethyl)-N-(3-methoxyphenethyl)-6-methyl-1,5,8,11-tetraoxo-9-(((S)-tetrahydro-2H-pyran-2-yl)methyl)-1,2,3,4,5,6,7,8,9,10,11,12,13,14-tetradecahydronaphtho[1,2-p][1]oxa[4,7,10,14]tetraazacycloheptadecine-3-carboxamide], for the setting “U2OS cell line”, the pEC50 is 6.47.

With `COc1cccc(CCNC(=O)[C@@H]2CC(=O)N(C)[C@@H](CC3CCCC3)C(=O)N(C[C@@H]3CCCCO3)CC(=O)N[C@H](Cc3ccccc3)COc3ccc4ccccc4c3C(=O)N2)c1` (mixture of isomers) [Example 295, (3RS,7S,13R)-13-benzyl-7-(cyclopentylmethyl)-N-(3-methoxyphenethyl)-6-methyl-1,5,8,11-tetraoxo-9-(((R)-tetrahydro-2H-pyran-2-yl)methyl)-1,2,3,4,5,6,7,8,9,10,11,12,13,14-tetradecahydronaphtho[1,2-p][1]oxa[4,7,10,14]tetraazacycloheptadecine-3-carboxamide], the pEC50 (U2OS cell line) was 6.69.

Consider `COc1cccc(CCNC(=O)[C@@H]2CC(=O)N(C)[C@@H](CC3CCCCC3)C(=O)N(C[C@H]3CCCCO3)CC(=O)N[C@H](Cc3ccccc3)COc3ccc4ccccc4c3C(=O)N2)c1` (mixture of isomers) [Example 296, (3RS,7S,13R)-13-benzyl-7-(cyclohexylmethyl)-N-(3-methoxyphenethyl)-6-methyl-1,5,8,11-tetraoxo-9-(((R)-tetrahydro-2H-pyran-2-yl)methyl)-1,2,3,4,5,6,7,8,9,10,11,12,13,14-tetradecahydronaphtho[1,2-p][1]oxa[4,7,10,14]tetraazacycloheptadecine-3-carboxamide], for which the pEC50 (U2OS cell line) was 6.80.

`COc1cccc(CCNC(=O)[C@@H]2CC(=O)N(C)[C@@H](CC3CCCC3)C(=O)N(CCC3CCCCC3)CC(=O)N[C@H](Cc3ccccc3)COc3ccc4ccccc4c3C(=O)N2)c1` (mixture of isomers) [Example 300, (3RS,7S,13R)-13-benzyl-9-(2-cyclohexylethyl)-7-(cyclopentylmethyl)-N-(3-methoxyphenethyl)-6-methyl-1,5,8,11-tetraoxo-1,2,3,4,5,6,7,8,9,10,11,12,13,14-tetradecahydronaphtho[1,2-p][1]oxa[4,7,10,14]tetraazacycloheptadecine-3-carboxamide]: the pEC50 (U2OS cell line) was 6.99.

`COc1cccc(CCNC(=O)[C@@H]2CC(=O)N(C)[C@@H](CC3CCCCC3)C(=O)N(CCC3CCCCC3)CC(=O)N[C@H](Cc3ccccc3)COc3ccc4ccccc4c3C(=O)N2)c1` (mixture of isomers) [Example 301, (3RS,7S,13R)-13-benzyl-9-(2-cyclohexylethyl)-7-(cyclohexylmethyl)-N-(3-methoxyphenethyl)-6-methyl-1,5,8,11-tetraoxo-1,2,3,4,5,6,7,8,9,10,11,12,13,14-tetradecahydronaphtho[1,2-p][1]oxa[4,7,10,14]tetraazacycloheptadecine-3-carboxamide]: for the setting “U2OS cell line”, the pEC50 is 6.95.

Regarding `COc1cc2c(cn1)OC[C@@H](Cc1ccccc1)NC(=O)[C@@H]1CCCCN1C(=O)[C@H](CC(C)C)N(C)C(=O)C[C@@H](C(=O)NCCc1noc(C3CC3)n1)NC2=O` (mixture of isomers) [Example 516, (7S,11S,17aRS,20R)-20-benzyl-N-(2-(5-cyclopropyl-1,2,4-oxadiazol-3-yl)ethyl)-11-isobutyl-3-methoxy-10-methyl-5,9,12,18-tetraoxo-5,6,7,8,9,10,11,12,15,16,17,17a,18,19,20,21-hexadecahydro-14H-dipyrido[2,1-f:4′,3′-p][1]oxa[4,7,10,14]tetraazacycloheptadecine-7-carboxamide], the Emax worked out at 155%. In addition, the pEC50 (U2OS cells) is 6.31.

As for `COc1cccc(CCNC(=O)[C@@H]2CC(=O)N(C)[C@@H](CC(C)C)C(=O)N3CCc4ccccc4[C@H]3C(=O)N[C@H](Cc3ccccc3)COc3ccnc(OC)c3C(=O)N2)c1` (mixture of isomers) [Example 569, (7S,11S,19bRS,22R)-22-benzyl-11-isobutyl-4-methoxy-N-(3-methoxyphenethyl)-10-methyl-5,9,12,20-tetraoxo-5,6,7,8,9,10,11,12,15,19b,20,21,22,23-tetradecahydro-14H-pyrido[3′,4′:16,17][1]oxa[4,7,10,14]tetraazacycloheptadecino[6,7-a]isoquinoline-7-carboxamide], the Emax is 270%. Besides, the pEC50 (U2OS cells) is 6.97.

With `COc1cccc(CCNC(=O)[C@@H]2CC(=O)N(C)[C@@H](CC(C)C)C(=O)N(C)[C@@H](C)C(=O)N[C@H](Cc3ccccc3)COc3ccc4cc(C)oc4c3C(=O)N2)c1` (mixture of isomers) [Example 575, (8R,11RS,14S,18S)-8-benzyl-14-isobutyl-N-(3-methoxyphenethyl)-2,11,12,15-tetramethyl-10,13,16,20-tetraoxo-7,8,9,10,11,12,13,14,15,16,17,18,19,20-tetradecahydrobenzofuro[7,6-p][1]oxa[4,7,10,14]tetraazacycloheptadecine-18-carboxamide], the Emax was determined as 273%. For the same compound, the pEC50 (U2OS cells) is 6.39.

Turning to `Cc1cc(CCNC(=O)[C@@H]2CC(=O)N(C)[C@@H](CC(C)C)C(=O)N(C)[C@@H](C)C(=O)N[C@H](Cc3ccccc3)COc3ccc4cc(C)oc4c3C(=O)N2)on1` (mixture of isomers) [Example 576, (8R,11RS,14S,18S)-8-benzyl-14-isobutyl-2,11,12,15-tetramethyl-N-(2-(3-methylisoxazol-5-yl)ethyl)-10,13,16,20-tetraoxo-7,8,9,10,11,12,13,14,15,16,17,18,19,20-tetradecahydrobenzofuro[7,6-p][1]oxa[4,7,10,14]tetraazacycloheptadecine-18-carboxamide], the Emax was 268%. In addition, under “U2OS cells”, the pEC50 is 6.28.

With `COc1cccc(CCNC(=O)[C@@H]2CC(=O)N(C)[C@@H](CC(C)C)C(=O)N3CCOC[C@H]3C(=O)N[C@H](Cc3ccccc3)COc3ccc4c(C)noc4c3C(=O)N2)c1` (mixture of isomers) [Example 624, (4aRS,7R,17S,21S)-7-benzyl-21-isobutyl-N-(3-methoxyphenethyl)-12,20-dimethyl-5,15,19,22-tetraoxo-1,2,4,4a,5,6,7,8,15,16,17,18,19,20,21,22-hexadecahydroisoxazolo[4′,5′:5,6]benzo[1,2-p][1,4]oxazino[3,4-f][1]oxa[4,7,10,14]tetraazacycloheptadecine-17-carboxamide], the Emax stood at 171%. The pEC50 (U2OS cells) is 6.04.

As for `COc1cc2c(cn1)OC[C@@H](Cc1ccccc1)NC(=O)[C@@H]1CCCCN1C(=O)[C@H](CC(C)C)N(C)C(=O)C[C@@H](C(=O)NCCc1cc(C3CC3)no1)NC2=O` (mixture of isomers) [Example 652, (7S,11S,17aRS,20R)-20-benzyl-N-(2-(3-cyclopropylisoxazol-5-yl)ethyl)-11-isobutyl-3-methoxy-10-methyl-5,9,12,18-tetraoxo-5,6,7,8,9,10,11,12,15,16,17,17a,18,19,20,21-hexadecahydro-14H-dipyrido[2,1-f:4′,3′-p][1]oxa[4,7,10,14]tetraazacycloheptadecine-7-carboxamide], the Emax worked out at 155%. Further, for the setting “U2OS cells”, the pEC50 was 6.23.

Take `COc1cccc(CCNC(=O)[C@@H]2CC(=O)N(C)[C@@H](CC(C)C)C(=O)N(C)[C@@H](COC(C)(C)C)C(=O)N[C@H](Cc3ccccc3)COc3ccc4ccccc4c3C(=O)N2)c1` (mixture of isomers) [Example 717, (3S,7S,10RS,13R)-13-benzyl-10-(tert-butoxymethyl)-7-isobutyl-N-(3-methoxyphenethyl)-6,9-dimethyl-1,5,8,11-tetraoxo-1,2,3,4,5,6,7,8,9,10,11,12,13,14-tetradecahydronaphtho[1,2-p][1]oxa[4,7,10,14]tetraazacycloheptadecine-3-carboxamide]: the Emax was 348%. For the same compound, the pEC50 (U2OS cells) is 7.16.

Turning to `COc1cccc(CCNC(=O)[C@@H]2CC(=O)N(C)[C@@H](CC(C)C)C(=O)N(C)[C@@H](CO)C(=O)N[C@H](Cc3ccccc3)COc3ccc4ccccc4c3C(=O)N2)c1` (mixture of isomers) [Example 718, (3S,7S,10RS,13R)-13-benzyl-10-(hydroxymethyl)-7-isobutyl-N-(3-methoxyphenethyl)-6,9-dimethyl-1,5,8,11-tetraoxo-1,2,3,4,5,6,7,8,9,10,11,12,13,14-tetradecahydronaphtho[1,2-p][1]oxa[4,7,10,14]tetraazacycloheptadecine-3-carboxamide], the pEC50 (U2OS cells) was 6.44.
